Experimental data published in US9075281B2, “Colored composition and image display structure” (FUJIFILM CORPORATION, priority 2011, dated 2015).

How the values were obtained:
Format in all cases: physicochemical
[1] = Solubility of the dye in n-hexane; settings: in n-hexane at 25° C. and 0.1 MPa
Method: 3. Solubility in n-Hexane
The solubility of the dye in a solvent, n-hexane, was determined as follows.
The dye to be measured was dissolved in n-hexane heated at 50° C., to prepare a saturated solution. The saturated solution obtained was then left in an environment of 25° C. and 0.1 MPa for 1 hour. The precipitated dye was filtered, and the precipitation amount was measured, from which the solubility (% by mass) of the dye in n-hexane at 25° C. and 0.1 MPa was calculated.

[2] = Absorption maximum wavelength, absorbance and absorption coefficient of the colored composition; settings: n-hexane solution, 3% by mass or maximum concentration at which the dye completely dissolves; for Absorption Coefficient (ε): calculated by Lambert-Beer law
Method: 2. Absorption Maximum Wavelength, Absorbance and Absorption Coefficient of the Colored Composition
The absorption maximum wavelength (λmax) and the absorbance (abs) of the colored composition were measured using a visible-light spectrophotometer (trade name: UV-1800PC, manufactured by Shimadzu Corporation). The absorption coefficient (∈) was calculated based on the Lambert-Beer law.

[3] = Measurement of relative permittivity; settings: dye itself, extrapolated from 1, 1.5 and 2% by mass n-hexane solutions; 20° C., 40% RH, 1 kHz
Method: 4. Measurement of Relative Permittivity
Solutions of Exemplary Compound D8-4 in n-hexane having concentrations of 1% by mass, 1.5% by mass and 2% by mass, respectively, were prepared, and individually injected into glass cells each having transparent indium-tin-oxide electrodes and a cell gap of 10 μm. The electrical capacities of the resultant cells were measured at 20° C. and 40% RH using a type 2353 LCR meter (manufactured by NF Corporation) at a measurement frequency of 1 kHz. The electrical capacity of n-hexane was also measured as a control sample.
The relative permittivities of the dyes (Exemplary Compounds) employed in the Examples were obtained in the same manner, and the results are shown in Table 7.

[4] = Measurement of dynamic viscosity; settings: 3% by mass solution in n-decane, 20° C.
Method: Here, the dynamic viscosity is a value obtained by measurement at 20° C., using a viscometer (type 500, manufactured by Toki Sangyo Co., Ltd.).
5. Measurement of Dynamic Viscosity
A 3% by mass solution of Exemplary Compound D8-4 in n-decane was prepared, and the viscosity of the dye solution was measured at 20° C. using a viscometer (type 500, manufactured by Toki Sangyo Co., Ltd.).
The dynamic viscosities of the dyes (Exemplary Compounds) employed in Examples were obtained in the same manner, and the results are shown in Table 8.

[5] = Color of colored composition, visually evaluated; settings: n-hexane solution, visual evaluation
Source text: 1. Color of Colored Composition
The color of the colored composition was visually evaluated.

Solubility (% by Mass) [1]	Absorption Maximum Wavelength (λ max) [2] [nm]	Relative Permittivity [3]	Dynamic Viscosity (mPa · s) [4] [mPa·s]	Color of Solution [5]	Absorption Coefficient (ε) [2]	SMILES
≥ 10 or % by mass	505	7.5	1.2	–	–	CCCCC(CC)COc1cc(N(CC(CC)CCCC)CC(CC)CCCC)ccc1N=C1C(=O)N(CC(CC)CCCC)N=C1C (stereo not shown) [D6-1]
0.1 % by mass	500	–	–	orange	–	CCCCCCOc1cc(N(CC)CC)ccc1N=C1C(=O)N(CCCC)N=C1C [D6-101, reference compound]
9.8 % by mass	505	–	–	–	4.60 × 10^4	CCCCC(CC)CC1=NN(CC(CC)CCCC)C(=O)C1=Cc1ccc(N(CC)CC)cc1OCC(CC(C)CC(C)CC(C)C)CC(C)CC(C)(C)C (stereo not shown) [D2-2]
3.0 % by mass	510	8.0	1.2	orange	4.30 × 10^4	CCCCCCN(CCCCCC)c1ccc(C=C2C(=O)N(CC(CC)CCCC)N=C2C)c(C)c1 (stereo not shown) [D2-5]
–	–	8.8	1.2	–	–	CCCCC(CC)CN(CC(CC)CCCC)c1ccc(C=C2C(=O)ON=C2C(C)CC)c(C)c1 (stereo not shown) [D1-1]
0.8 % by mass	541	–	–	red	–	CCCCCCCCN1c2cc(C)c(/N=C3/C(C)=Nn4nc(C(C)(C)C)nc43)cc2C(C)CC1(C)C (stereo not shown) [D8-101, reference compound]
–	–	4.2	1.3	–	–	CCCCC(CC)CNC(=O)C1=CC(=Nc2ccc(N(CC(CC)CCCC)CC(CC)CCCC)cc2C)c2ccccc2C1=O (stereo not shown) [D10-1]
≥ 10 or % by mass	500	–	–	–	–	CCCCC(CC)CC1=NN(CC(CC)CCCC)C(=O)C1=Nc1ccc(N(CC)CC)cc1OCC(C)(CC(C)CC(C)C)CC(C)CC(C)(C)C (stereo not shown) [D6-2]
–	–	5.6	–	–	–	CCCCC(CC)CN(CC(CC)CCCC)c1ccc(/N=C2\C(C#N)=C(C(=O)OC3C(C(C)(C)C)CC(C)CC3C(C)(C)C)c3nc(C(C)(C)C)nn32)c(C(=O)N(CCCC)CCCC)c1 (stereo not shown) [D9-4]
≥ 10 or % by mass	562	7.8	1.3	red	–	CCCCCC(CC)c1nc2n(n1)N=C(C(C)CC)/C2=N/c1ccc(N(CC(CC)CCCC)CC(CC)CCCC)cc1C (stereo not shown) [D8-4]
3.6 % by mass	640	6.5	1.3	blue	–	CCCCC(CC)CNc1ccc(NCC(CC)CCCC)c2c1C(=O)c1ccccc1C2=O (stereo not shown) [D4-2]
≥ 10 or % by mass	525	–	–	–	–	CCCCC(CC)CN1C(=O)C(=Cc2ccc(N(CCCC)CCCC)cc2OCC(CC(C)CC(C)CC(C)C)CC(C)CC(C)(C)C)C(C)=C(C#N)C1=O (stereo not shown) [D3-2]
≤ 0.05 or % by mass	–	–	–	–	–	CCN(CC)c1ccc(/N=C2\C(C#N)=C(C(=O)OC)c3nc(-c4ccc(C(C)(C)C)cc4)nn32)c(C)c1 [D9-101, reference compound]
6.2 % by mass	528	9.5	1.2	–	–	CCCCC(CC)CN(CC(CC)CCCC)c1ccc(C=C2C(=O)N(C(C)CC)C(=O)C(C#N)=C2C(C)CC)c(C)c1 (stereo not shown) [D3-1]
–	–	7.6	–	–	–	CCCCC(CC)CN(CC(CC)CCCC)c1ccc(/N=C2\C(C#N)=C(C(=O)OC3C(C(C)(C)C)CC(C)CC3C(C)(C)C)c3nc(C(CC)CCCC)nn32)c(C(C)CC)c1 (stereo not shown) [D9-3]
–	–	7.7	1.3	–	–	CCCCC(CC)CNC(=O)c1cc(N(CC(CC)CCCC)CC(CC)CCCC)ccc1/N=C1/C(CC)=Nn2nc(C(C)C)nc21 (stereo not shown) [D8-9]
≥ 10 or % by mass	650	6.2	1.2	blue	–	CCCCC(CC)CNC(=O)c1cc(N(CC(CC)CCCC)CC(CC)CCCC)ccc1/N=C1\C(C#N)=C(C(=O)OC2C(C(C)(C)C)CC(C)CC2C(C)(C)C)c2nc(C(C)(C)C)nn21 (stereo not shown) [D9-6]
≦0.01 % by mass	–	–	–	–	–	CCCCCCOc1cc(N(CCCC)CCCC)ccc1C=C1C(=O)N(CCCC)C(=O)C(C#N)=C1C [D3-101, reference compound]
≥ 10 or % by mass	600	6.5	1.2	blue	–	CCCCC(CC)CN(CC(CC)CCCC)c1ccc(/N=C2\C(C#N)=C(C(=O)OC3C(C(C)(C)C)CC(C)CC3C(C)(C)C)c3nc(C(C)(C)C)nn32)cc1 (stereo not shown) [D9-5]
0.1 % by mass	510	–	–	orange	4.25 × 10^4	CCCCC1=NN(CCCC)C(=O)C1=Cc1ccc(N(CCCC)CCCC)cc1C [D2-101, reference compound]
8.5 % by mass	508	8.5	1.3	orange	4.40 × 10^4	CCCCC(CC)CN(CC(CC)CCCC)c1ccc(C=C2C(=O)N(C(C)CC)N=C2C(C)CC)c(C)c1 (stereo not shown) [D2-1]
2.2 % by mass	616	–	–	blue	–	CCCCCCCCN1c2cc(C)c(/N=C3\C(C#N)=C(C(=O)OC4C(C(C)(C)C)CC(C)CC4C(C)(C)C)c4nc(C(C)CCCC)nn43)cc2C(C)CC1(C)C (stereo not shown) [D9-2]
0.1 % by mass	642	–	–	blue	–	CCCCCCNc1ccc(NCCCCCC)c2c1C(=O)c1ccccc1C2=O [D4-101, reference compound]
≥ 10 or % by mass	542	–	–	red	–	CCCCCCCCN1c2cc(C)c(/N=C3/C(C)=Nn4nc(C(C)CNC(=O)C(CCCCCC)Oc5ccc(C(C)(C)CC)cc5C(C)(C)CC)nc43)cc2C(C)CC1(C)C (stereo not shown) [D8-2]
